The text below walks through data of US11447495B2, “Substituted benzo[f]imidazo[1,5-a][1,4]diazepines as GABA(a) receptor modulators” (priority 2016, dated 2022).

A short description of series [1]: Airway hyperresponsiveness (sRaw) to methacholine in ovalbumin asthma model. It is filed as in vivo, ova s/c BALB/c mice. To be noted: oral gavage, 100 mg/kg twice daily for 5 days, methacholine challenge. As for the experimental part:
Compounds described herein may reduce airway hyperresponsiveness in animal models of asthma. Therefore, mice may be sensitized three times with intra-peritoneal (i.p.) injections of 2 mg/kg/d of ovalbumin (Ova) emulsified in […] on days 0, 7 and 14 in a total volume of 100 μL. In addition, mice may be challenged intra-nasally (i.n.) with 1 mg/kg/d Ova for 5 days from days 23-27. Control mice may be sensitized with Ova and challenged with saline. The airway hyperresponsiveness measurements may be carried out with DSI's Buxco® FinePointe Non-Invasive Airway Mechanics (NAM) instrument consisting of a nasal chamber in combination with the thoracic chamber that allows the computation of specific airway resistance (sRaw). Treated conscious, spontaneously breathing Ova S/C mice may be exposed to aerosolized phosphate buffered saline (PBS) (for the baseline measurement) or methacholine (1.5625-12.5 mg/mL) for 1 minute and readings (sRaw) may be taken and averaged for 3 minutes after each nebulization.
Drug treatment protocol: Sterile solutions of compounds were prepared in 2% hydroxypropyl methylcellulose solution (Sigma-Aldrich, St. Louis, Mo.) and 2.5% polyethylene glycol (Sigma Aldrich, St. Louis, Mo.) for oral administration in a biological safety cabinet. A fine suspension was obtained by grinding the mixture with a mortar and pestle. Drugs were administered individually at 100 mg/kg by oral gavage (200 ul) with 20G gavage needles (Kent Scientific Corporation, Torrington Conn.) to groups of ova s/c BALB/c twice daily for 5 days during the ova challenge period. Mice received a single p.o. dose of the compounds just before airway parameter measurements. Compounds for i.p. injection were prepared in 10% DMSO, 40% propylene glycol, and 50% PBS and given as 100 ul injection. Mice were monitored daily after drug administration. Assessment of Airway hyper-responsiveness: Airway hyper-responsiveness to methacholine in conscious, spontaneously breathing animals was measured by DSI's Buxco® FinePointe Non-Invasive Airway Mechanics (NAM) instrument. Before measurements were taken, mice were acclimated to the chambers 15 minutes daily for 5 days. In addition, an ovalbumin sensitization and challenge protocol consists of randomized male BALB/c mice that were sensitized three times with intra-peritoneal (i.p.) injections of 2 mg/kg/d of ovalbumin (Ova) (Sigma-Aldrich, St. Louis, Mo.) emulsified in 2 mg of Alum (Imject Alum; Thermo Scientific, Pierce, Rockford, Ill.) on days 0, 7 and 14 in a total volume of 100 μL. The mice were then challenged intra-nasally (i.n.) with 1 mg/kg/d Ova for 5 days from days 23-27. Control mice were sensitized with Ova and challenged with saline. The chambers were also calibrated each time before data collection. Briefly, the nasal chamber in combination with the thoracic chamber allows the computation of specific airway resistance (sRaw). The FinePointe software computes specific airway resistance (sRaw) with all other ventilatory parameters derived by the NAM analyzer. Mice were exposed to aerosolized PBS (for the baseline measurement) or methacholine (1.5625-12.5 mg/mL) for 1 minute and readings were taken and averaged for 3 minutes after each nebulization. Data obtained were presented as sRaw versus the methacholine concentration (mg/mL) used to generate the aerosol. FIG. 5A-5F show compound effects on airway hyperresponsiveness. Specific airway resistance (sRaw) was measured at increasing dosages of methacholine by a DSI's Buxco FinePointe non-invasive airway mechanics instrument. Ova s/c BALB/c mice were administered all compounds via oral gavage, 100 mg/kg twice daily for 5 days. Data represent mean±SEM from 10 mice in each group. *, **, and *** indicate p<0.05, p<0.01, p<0.001 significance, respectively, compared to vehicle treated ova s/c BALB/c mice.

The next series concerns HEK293. Put plainly: Cytotoxicity, CellTiter-Glo cell viability assay, kidney cells. It is filed as cell-based, human. To be noted: human, HEK293 (HEK293T) human embryonic kidney cells. As for the experimental part:
The cytotoxicity of compounds may be evaluated by treating HEK293 human embryonic kidney cells with increasing concentrations of compounds for 24-48 hours followed by the quantification of living cells using Cell-Titer Glo (Promega).
Compounds with increased cytotoxicity can be identified using an in vitro cytotoxicity assay. Therefore, human embryonic kidney 293T (HEK293T) cell lines were purchased (ATCC) and cultured in 75 cm2 flasks (CellStar). Cells were grown in DMEM/High Glucose (Hyclone, #SH3024301) media to which non-essential amino acids (Hyclone, #SH30238.01), 10 mM HEPES (Hyclone, #SH302237.01), 5×106 units of penicillin and streptomycin (Hyclone, #SV30010), and 10% of heat inactivated fetal bovine serum (Gibco, #10082147) were added. Cells were harvested using 0.05% Trypsin (Hyclone, #SH3023601). The cell viability assay was evaluated using CellTiter-Glo™ Luminescent Cell Viability Assay Kit (Promega, Madison, Wis.), which contains luciferase and all its substrate except ATP. The controls for the cytotoxicity assay used were (E)-10-(bromotriphenylphosphoranyl)decyl 4-(4-(tert-butyl)phenyl)-4-oxobut-2-enoate (400 μM in DMSO, positive control) and DMSO (negative control). All luminescence readings were performed on a Tecan Infinite M1000 plate reader. Small volume transfers were performed on the Tecan Freedom EVO liquid handling system with a 100 nL pin tool transfer (V&P Scientific). Serial dilutions were done in 96-well polypropylene plates (Corning, #3365) and assays were conducted in 384-well white optical bottom plates. The assays were carried out in quadruplet in three independent runs. The data were normalized to the controls and if possible analyzed by nonlinear regression (GraphPad Prism).
A general note: Cellular ATP, detected with luciferase, serves as a proxy for viable cell number.

In another series the test system is mucin. In words: Mucin production in airway epithelium, morphometric quantification. It is filed as in vivo, Balb/c mice. To be noted: 100 mg/kg twice for five days. As for the experimental part: Pharmacodynamic effects of compounds in respect to mucus production were investigated after the AHR measurement by harvesting the lungs of treated and non-treated Ova S/C mice followed by formalin fixation and paraffin embedding. Sections were prepared from one lobe (including large and small airways) and processed for standard H&E (for general histopathology and inflammation) and PAS (for mucous cell; as cells/mm of basement membrane) staining. FIGS. 10A-10B show compound effects on mucin production: (A) Morphometric quantification of mucin volume density and (B) representative images of mucin (red) in the airway epithelium (green) with periodic acid fluorescent Schiff's stain. Balb/c mice were administered compounds at 100 mg/kg twice for five days. Data represent mean±SEM from 5-7 mice in each group. Scale bar represents 100 μm.

Each structure is given as a SMILES string.

For the compound `C[C@H]1N=C(c2ccccc2F)c2cc(Br)ccc2-n2cnc(C(=O)O)c21` [GL-II-93, (R)-8-bromo-6-(2-fluorophenyl)-4-methyl-4H-benzo[f]imidazo[1,5-a][1,4]diazepine-3-carboxylic acid], the “airway hyperresponsiveness (sRaw)” value in series [1] is “reduced airway hyperresponsiveness at one or multiple concentrations of methacholine”. Moreover, in the series on HEK293, the “LD50 HEK293 (Kidney)” value was >400 µM. Further, the production of mucin result in the series with mucin was “did not change the production of mucin”.

Turning to `CCOC(=O)c1ncn2c1[C@@H]1CCCN1C(=O)c1cc(O)ccc1-2` [RJ-02-50, ethyl (S)-7-hydroxy-9-oxo-11,12,13,13a-tetrahydro-9H-benzo[e]imidazo[5,1-c]pyrrolo[1,2-a][1,4]diazepine-1-carboxylate], in series [1], the “airway hyperresponsiveness (sRaw)” value is given as “reduced airway hyperresponsiveness at one or multiple concentrations of methacholine”. In the series on HEK293, the “LD50 HEK293 (Kidney)” value is >400 µM. In addition, the production of mucin entry in the series on mucin was “did not change the production of mucin”.

Consider `O=C1c2cc(O)ccc2-n2cnc(-c3cnco3)c2[C@@H]2CCCN12` [RJ-03-30, (S)-7-hydroxy-1-(oxazol-5-yl)-11,12,13,13a-tetrahydro-9H-benzo[e]imidazo[5,1-c]pyrrolo[1,2-a][1,4]diazepin-9-one], for which the “airway hyperresponsiveness (sRaw)” value in series [1] was “not able to alleviate airway hyperresponsiveness”. In the series with HEK293, the “LD50 HEK293 (Kidney)” value is >400 µM.

Turning to `C#Cc1ccc2c(c1)C(c1ccccc1F)=N[C@H](C)c1c(C(=O)O)ncn1-2` [SH-053-2′F-R-CH3-Acid, (R)-8-ethynyl-6-(2-fluorophenyl)-4-methyl-4H-benzo[f]imidazo[1,5-a][1,4]diazepine-3-carboxylic acid], the “airway hyperresponsiveness (sRaw)” value in series [1] was “reduced airway hyperresponsiveness at one or multiple concentrations of methacholine”. The “LD50 HEK293 (Kidney)” value with HEK293 is >400 µM. Besides, in the series on mucin, the production of mucin result is on record as “did not change the production of mucin”.
